Some test systems named below: EKVX; SK-OV-3; HCC 2998; M14; OVCAR-8; OVCAR-5; MDA-N; IGROV-1; RPMI-8226; HCT-116; Hs-578T; MCF7; 786-0; CAKI-1; LOX IMVI; NCI-H226; HT-29; OVCAR-4; HOP-62; NCI-H522.
Assay in all cases: inhibition of tumour cell growth, NCI panel, 48 h

Molecules are shown by their SMILES. “And” between values parts separate entries of the source, which are not always exact repeats. Equal entries are not always repeated.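 Growth conditions: 96-well plates. Treatment: test compound, 48 hours, 5 concentrations. Analysis: linear interpolation between bracketing concentrations; unreached endpoints set to highest concentration. Abbreviation: GI50, concentration required for 50% inhibition of growth.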 The source made the active and inactive calls. Cut-off read from the data, not from the text of the source: active = GI50 up to about 1.1 µM and inactive = higher. Non-standard residues stand in square brackets, D forms with d. Residues, ends and D or L forms follow the SMILES beside them. ξ: configuration not given here. *: point of attachment. dThr(3ξ) = CC(O)[C@@H](N)C(=O)O; dNMeL = CN[C@H](CC(C)C)C(=O)O; OBn = c1ccc(CO*)cc1; ξLac = CC(O)C(=O)O

As to `COc1ccc(/C=C2/N/C(=N\N=C/C(O)C(O)C(O)CO)NC2=O)cc1` (stereo not drawn), the GI50 with EKVX is > 100 µM (inactive); in the assay with SK-OV-3 it was 73.6 µM (inactive); in the assay with HCC 2998, 58.5 µM (inactive); in the assay with M14 it was 51.8 µM (inactive); with OVCAR-8, > 100 µM (inactive); with OVCAR-5, > 100 µM (inactive). Moreover, the GI50 is 72.6 µM (inactive) in the assay on MDA-N; > 100 µM (inactive) and 76.7 µM (inactive) with IGROV-1; > 100 µM (inactive) in the assay with RPMI-8226; > 100 µM (inactive) with HCT-116; 78.2 µM (inactive) in the assay with Hs-578T; 15.9 µM (inactive) in the assay with MCF7. Moreover, the GI50 in the assay on 786-0 is > 100 µM (inactive) and 62.4 µM (inactive); with CAKI-1, > 100 µM (inactive); in the assay on LOX IMVI, > 100 µM (inactive); with NCI-H226 it was 87.7 µM (inactive); with HT-29, > 100 µM (inactive) and 63.7 µM (inactive).

As to `CC(C)(C)c1cc([N+](=O)[O-])cc([N+](=O)[O-])c1O` [DINOTERB], the GI50 in the assay on OVCAR-4 is > 10 µM (inactive); in the assay with EKVX, 9.86 µM (inactive); in the assay on SK-OV-3 it was > 10 µM (inactive); with HCC 2998 it was > 10 µM (inactive); in the assay on M14 it was > 10 µM (inactive); in the assay with OVCAR-8, > 10 µM (inactive). Moreover, the GI50 with OVCAR-5 is > 10 µM (inactive); in the assay on MDA-N, > 10 µM (inactive); in the assay on IGROV-1, > 10 µM (inactive); with HOP-62 it was > 10 µM (inactive); with RPMI-8226 it was 4.12 µM (inactive); in the assay with HCT-116 it was > 10 µM (inactive). The GI50 in the assay on Hs-578T is 8.71 µM (inactive); in the assay on MCF7, > 10 µM (inactive); in the assay with 786-0 it was > 10 µM (inactive); in the assay on CAKI-1 it was 5.6 µM (inactive); with NCI-H522, > 10 µM (inactive); in the assay with LOX IMVI, > 10 µM (inactive). The GI50 in the assay with NCI-H226 and in the assay with HT-29 was > 10 µM (inactive) each time.

Consider `COc1ccc(C(F)(F)F)cc1NC(=O)O/N=C(/Cl)C(C)C`, for which the GI50 was 19.1 µM (inactive) in the assay on OVCAR-4; 17.7 µM (inactive) with EKVX; > 47.5 µM (inactive) with SK-OV-3; 19.9 µM (inactive) in the assay on HCC 2998; 16.9 µM (inactive) in the assay on M14; 21.9 µM (inactive) in the assay on OVCAR-8. Moreover, the GI50 with OVCAR-5 is 20.6 µM (inactive); in the assay on MDA-N, 16.3 µM (inactive); with IGROV-1 it was 17.9 µM (inactive); in the assay on HOP-62, 21.6 µM (inactive); in the assay on RPMI-8226, 1.71 µM (inactive); in the assay with HCT-116, 16.4 µM (inactive). Moreover, the GI50 in the assay on Hs-578T is 30.4 µM (inactive); in the assay with MCF7 it was 21.2 µM (inactive); in the assay with 786-0, 16.9 µM (inactive); in the assay on CAKI-1, 1.77 µM (inactive); in the assay with NCI-H522 it was 2.26 µM (inactive); in the assay with LOX IMVI it was 5.27 µM (inactive). Also, the GI50 with NCI-H226 is 17.7 µM (inactive); with HT-29, 23.9 µM (inactive).

With `CC1=CC(=O)N(n2c(Cc3ccccc3)n[nH]c2=O)C1=O`, the GI50 in the assay with OVCAR-4, with EKVX, with SK-OV-3, with HCC 2998, in the assay on M14 and in the assay with OVCAR-8 was > 100 µM (inactive) in each case. Also, the GI50 in the assay on OVCAR-5 is > 100 µM (inactive); in the assay with MDA-N, > 100 µM (inactive); in the assay with IGROV-1, > 100 µM (inactive); in the assay with RPMI-8226, 52 µM (inactive); in the assay with HCT-116, > 100 µM (inactive); in the assay on Hs-578T, > 100 µM (inactive). The GI50 in the assay with MCF7 is > 100 µM (inactive); with 786-0, > 100 µM (inactive); in the assay on CAKI-1 it was > 100 µM (inactive); in the assay with NCI-H522 it was > 100 µM (inactive); in the assay with LOX IMVI it was 83.4 µM (inactive); with NCI-H226, > 100 µM (inactive). Moreover, in the assay on HT-29, the GI50 was > 100 µM (inactive).

Consider `CC(=O)OC(C)[C@@H](NC(=O)[C@@H](CC(C)C)N(C)C(=O)[C@@H]1CCCN1C(=O)C(C)O)C(=O)OCc1ccccc1` (stereo partly drawn) (H-[ξLac]P[dNMeL][dThr(3ξ)](Ac)-OBn), for which the GI50 with OVCAR-4 was 62.4 µM (inactive); in the assay on EKVX, > 100 µM (inactive); in the assay on SK-OV-3 it was > 100 µM (inactive); in the assay with HCC 2998, > 100 µM (inactive); in the assay with M14, > 100 µM (inactive); with OVCAR-8 it was > 100 µM (inactive). The GI50 in the assay with OVCAR-5, in the assay on MDA-N, in the assay on IGROV-1, with HOP-62, with RPMI-8226 and with HCT-116 was > 100 µM (inactive) throughout. The GI50 in the assay with Hs-578T, in the assay on MCF7, in the assay with 786-0, with CAKI-1, in the assay on NCI-H522 and with LOX IMVI was > 100 µM (inactive) throughout. In addition, the GI50 with NCI-H226 and in the assay with HT-29 was > 100 µM (inactive) throughout.

As to `COC(=O)CCCc1ccc2c(c1)CCC2`, the GI50 with OVCAR-4, in the assay with SK-OV-3, in the assay with HCC 2998, with M14, in the assay on OVCAR-8 and with OVCAR-5 was > 100 µM (inactive) in each case. The GI50 in the assay on MDA-N, in the assay on IGROV-1, in the assay with HOP-62, with RPMI-8226, with HCT-116 and with Hs-578T was > 100 µM (inactive) in each case. In addition, the GI50 in the assay on MCF7 is > 100 µM (inactive); in the assay with 786-0, > 100 µM (inactive); in the assay on CAKI-1, > 100 µM (inactive); with NCI-H522 it was 92.3 µM (inactive); in the assay on LOX IMVI it was > 100 µM (inactive); in the assay with NCI-H226 it was > 100 µM (inactive).

Take `O=C1c2ccccc2C(=O)c2c(NCC3CO3)ccc(NCC3CO3)c21` (stereo not drawn): the GI50 in the assay with OVCAR-4 was 10.9 µM (inactive); in the assay with EKVX, > 32.2 µM (inactive); in the assay with SK-OV-3, 10.4 µM (inactive); in the assay on HCC 2998, 9.1 µM (inactive); in the assay with M14, 0.682 µM (active); in the assay on OVCAR-8 it was 0.63 µM (active). Besides, the GI50 was 4.54 µM (inactive) in the assay with OVCAR-5; 1.3 µM (inactive) in the assay on MDA-N; 3.78 µM (inactive) in the assay with IGROV-1; 1.55 µM (inactive) in the assay with HOP-62; 2.76 µM (inactive) in the assay on RPMI-8226; 0.171 µM (active) with HCT-116. For the same compound, the GI50 was 3.72 µM (inactive) in the assay with Hs-578T; 0.112 µM (active) in the assay on MCF7; 0.766 µM (active) with 786-0; 0.687 µM (active) with CAKI-1; 5.24 µM (inactive) with NCI-H522; 0.0132 µM (active) in the assay on LOX IMVI. For the same compound, the GI50 in the assay with NCI-H226 was 8.59 µM (inactive); in the assay with HT-29 it was 1.88 µM (inactive).

Consider `Cc1cc(C)n(CC(Cn2nc(C)cc2C)=C(/C(Cl)=C(/Cl)Nc2ccc([N+](=O)[O-])cc2)[N+](=O)[O-])n1`, for which the GI50 was 1.02 µM (active) in the assay on OVCAR-4; 3.85 µM (inactive) in the assay with EKVX; 3.37 µM (inactive) in the assay on SK-OV-3; 3.52 µM (inactive) in the assay with HCC 2998; 4.37 µM (inactive) in the assay with M14; 3.35 µM (inactive) in the assay on OVCAR-8. For the same compound, the GI50 in the assay with OVCAR-5 is 7.78 µM (inactive); in the assay on MDA-N it was 3.74 µM (inactive); in the assay with IGROV-1 it was 2.62 µM (inactive); in the assay on HOP-62, 4.46 µM (inactive); with RPMI-8226, 1.93 µM (inactive); in the assay with HCT-116 it was 3.7 µM (inactive). Besides, the GI50 is 5.31 µM (inactive) in the assay on Hs-578T; 3.71 µM (inactive) in the assay with MCF7; 5.06 µM (inactive) in the assay on 786-0; 1.81 µM (inactive) in the assay on CAKI-1; 2.09 µM (inactive) in the assay with NCI-H522; 2.3 µM (inactive) in the assay with LOX IMVI. In addition, the figures for the GI50 with NCI-H226 and in the assay on HT-29 were 10.2 µM (inactive) and 3.28 µM (inactive), respectively.

As for `NS(=O)(=O)c1ccc(/N=N/c2ccc(O)cc2)cc1`, the GI50 in the assay on OVCAR-4 is 43.4 µM (inactive); in the assay with EKVX, 20.7 µM (inactive); in the assay on SK-OV-3, > 100 µM (inactive); with HCC 2998 it was > 100 µM (inactive); with M14, 33.2 µM (inactive); in the assay on OVCAR-8 it was 45.3 µM (inactive). The GI50 with OVCAR-5 is > 100 µM (inactive); with MDA-N it was 61.9 µM (inactive); in the assay on IGROV-1, 70 µM (inactive); in the assay on HOP-62, 92 µM (inactive); in the assay on RPMI-8226, 26.5 µM (inactive); with HCT-116, 37.3 µM (inactive). For the same compound, the GI50 in the assay with Hs-578T was 61.8 µM (inactive); in the assay on MCF7, 39.4 µM (inactive); in the assay on 786-0 it was > 100 µM (inactive); in the assay on CAKI-1 it was 20.9 µM (inactive); in the assay with NCI-H522 it was 33.7 µM (inactive); in the assay with LOX IMVI, 6.61 µM (inactive). Besides, the results for the GI50 with NCI-H226 and with HT-29 were 19.3 µM (inactive) and 50.2 µM (inactive), respectively.

For `C[C@@H](CC(=O)O)OC1OC(COC(=O)C(C)(C)C)C(OC(=O)C(C)(C)C)C(OC(=O)C(C)(C)C)C1OC(=O)C(C)(C)C` (stereo partly drawn), the GI50 with EKVX was 93.5 µM (inactive); in the assay on SK-OV-3 it was 73.6 µM (inactive); with HCC 2998 it was 35 µM (inactive); in the assay with M14, > 100 µM (inactive); in the assay on OVCAR-8 it was 81.7 µM (inactive); in the assay on OVCAR-5 it was > 100 µM (inactive). Moreover, the GI50 with MDA-N was 69.7 µM (inactive); in the assay with IGROV-1, 72.3 µM (inactive); in the assay with HOP-62 it was > 100 µM (inactive); in the assay with RPMI-8226, 26.4 µM (inactive); in the assay with HCT-116, 47.5 µM (inactive); with Hs-578T it was 58.7 µM (inactive). The GI50 was 41.2 µM (inactive) in the assay with MCF7; 66.2 µM (inactive) in the assay on 786-0; 62.2 µM (inactive) in the assay with CAKI-1; 57 µM (inactive) in the assay with NCI-H522; 97.3 µM (inactive) with LOX IMVI; > 100 µM (inactive) with NCI-H226. The GI50 in the assay with HT-29 is 39 µM (inactive).
